Experiments:
endogenous LPL = assay: Phosphorylation of endogenous (cellular) LPL in osteoclasts (LPL immunoprecipitation, p-Serine immunoblot); format: cell-based, mouse; settings: sNT-LPL peptides, 3-4 hours, bone particles and TNF-α
Procedure: Bone particles (60-80 μm in size) were prepared as described previously (Ma et at, 2010, J. Biol. Chem., 285: 29911-29924). After flushing the marrow cells for osteoclast differentiation as described above, long bones of mice (free of cells inside and muscles outside) were washed extensively with PBS and kept in ethanol until use. Long bones were air-dried in the hood and homogenized by a mini blender. Bone particles were sieved and used for experiments. Multinucleated osteoclasts were seen from day four onward. At this time cultures were added with bone particles (100 μg/ml media) for 3-4 hours or 12-14 hours in the presence of TNF-α (20 ng/ml). Some cultures were treated with 3-5 μg/ml TNFR1 antibody. Osteoclasts were preincubated with the TNFR1 antibody for 60-90 minutes before the addition of TNF-α to enhance the blocking effect. Osteoclasts incubated with bone particles for 3-4 or 12-14 hours in the presence of TNF-α were used for lysate preparations.
The vector pTAT-HA has an N-terminal 6-histidine leader (Nagahara et al., 1998, Nature Medicine, 4:1449-1452). […] For transduction with TAT-fused peptides (100-150 nM), osteoclasts were first kept in serum-free α-MEM for two hours. Afterward, TAT proteins of interest, bone particles, and TNF-α were added to cells in serum-free α-MEM Lysates were made from these cells for immunoprecipitation and immunoblotting analyses. Osteoclasts plated on dentine slices in the presence of TAT-proteins of interest and TNF-α for 3-6 hours or 12-14 hours were used for immunostaining or actin staining analyses. Osteoclast cultures treated only with TNF-α were used as controls.
Following various treatments, osteoclasts were washed three-times with cold PBS and lysed in a radioimmune precipitation buffer (RIPA; 10 mM Tris-HCl, pH 7.2, 150 mM NaCl, 1% deoxycholate, 1% Triton X-100, 0.1% SDS, 1% aprotinin, 2 mM PMSF, […], and 1% aprotinin). Cells were rocked on ice for 15 minutes and scraped off with a cell scraper. Cell lysates were centrifuged at 15,000 rpm for 5 minutes at 4° C., and the supernatant was saved. Protein contents were measured using Bio-Rad protein assay reagent. Equal amounts of lysate proteins (100-150 μg) were used for immunoprecipitations. Immunoprecipitations and Western blotting were done as described previously (Chellaiah et al., 1998, J. Biol. Chem., 273: 11908-11916; Chellaiah et al., 1996, Mol. Biol. Cell, 7: 743-753).
After cells were kept in the serum-free α-MEM medium for two hours, LPL peptides of interest were added to a final concentration of 100-150 nM to cells in serum-free media (Chellaiah et al, 2000, J. Biol. Chem., 275: 11993-12002). Osteoclasts transduced with peptides of interest and added with bone particles in the presence of TNF-α for 3-4 hours or 12-14 hours were used for lysate preparations. Cells plated on coverslips and treated with peptides were used for actin staining to detect podosomes. After transduction for 30 min., osteoclasts were re-plated on dentine slices with respective LPL peptide and TNF-α for 3-6 hours or 12-14 hours. These cells were used for Actin staining with rhodamine-phalloidin or immunostaining analyses (Chellaiah et al., 2000, J. Biol. Chem., 275: 11993-12002; Chellaiah et al., 2000, J. Cell. Biol., 148: 665-678; Chellaiah et al., 2003, J Biol Chem 278: 29086-29097).
Following various treatments, osteoclasts were washed three times with cold PBS and lysed in a Triton-containing lysis buffer as described (Chellaiah et al., 1996, Mol. Biol. Cell, 7: 743-753). Cells were rocked on ice for 15 minutes, and scraped off with a cell scraper. Cell lysates were centrifuged at 15,000 rpm for 5 minutes, at 4° C., and the supernatant was saved. Protein contents were measured using Bio-Rad protein assay reagent. Osteoclast cultures were also subjected to a trypan blue dye (Sigma T8154) exclusion test to determine the viability of osteoclasts after various treatments. […]

osteoclasts = assay: F-actin content by rhodamine phalloidin binding; format: cell-based, mouse; settings: sNT-LPL peptides; compared with P2, P5, and P6
Procedure: For the measurement of F-actin, osteoclasts transduced with TAT-LPL peptides of interest for 15 to 30 minutes were re-plated on dentine slices for 3 to 4 hours or 10-12 hours, respectively, in the presence of indicated TAT-fused peptides of interest and TNF-α. For each treatment four to six wells in 24 well, culture dishes were used. Cells were fixed and rhodamine phalloidin binding to F-actin was done as described (Chellaiah et al., 2000, J. Cell Biol., 148: 665-678; Chellaiah et al., 2000, J. Biol. Chem., 275: 11993-12002: Chellaiah et at, 2007, J. Biol. Chem., 282: 10104-10116),
Osteoclasts were transduced with LPL and control peptides. For each treatment four to six wells in 24 well culture dishes were used. Cells were fixed and rhodamine phalloidin binding to F-actin was done as described (Chellaiah et al., 1998, J. Biol. Chem., 273: 11908-11916; Chellaiah et al., 1996, Mol. Biol. Cell, 7: 743-753).

Sequence	inhibitory effect on the phosphorylation of cellular LPL (endogenous LPL)	F-actin level (osteoclasts)
MARGAVSDEE [Peptide P3, TAT-fused sNT-LPL peptide, Ser-5 substituted with Ala (A5S7)]	varied inhibitory effects	decreased
MARGSVADEE [Peptide P4, TAT-fused sNT-LPL peptide, Ser-7 substituted with Ala (S5A7)]	varied inhibitory effects	decreased

Reference: patent publication US11485762B2, “Compositions and methods for inhibition of L-plastin activity in osteoclasts to reduce bone loss” (University of Maryland, Baltimore, priority 2017, dated 2022)
